Among the data in BindingDB's records for doi:10.1021/jm00102a007 (University of South Florida, 1993) are EC50 values, retold here.

The target in the experiment is T1, Adenosine receptor A1 (Cavia porcellus, UniProt P47745).
T1 sequence (P47745 whole entry): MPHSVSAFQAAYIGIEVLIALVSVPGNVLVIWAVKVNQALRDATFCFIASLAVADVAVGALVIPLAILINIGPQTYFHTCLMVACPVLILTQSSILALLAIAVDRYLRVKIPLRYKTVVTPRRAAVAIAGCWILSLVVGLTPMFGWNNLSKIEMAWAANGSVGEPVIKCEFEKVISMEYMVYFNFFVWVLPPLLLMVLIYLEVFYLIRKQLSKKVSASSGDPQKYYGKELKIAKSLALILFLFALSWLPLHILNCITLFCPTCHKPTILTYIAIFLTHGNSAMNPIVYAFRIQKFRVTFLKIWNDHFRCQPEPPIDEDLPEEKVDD
The experiment can be described thus: ChEBML_29278. From the text:
In vitro prolonging of the stimulus-QRS interval in guinea pig heart.

`CCCCCN=Nc1nc(N)c2ncn(C3O[C@H](CO)[C@@H](O)[C@H]3O)c2n1` (stereo partly specified) showed an EC50 of 25.1 µM.
